From patent publication US8952033B2, “4-anilinofuro[2,3-b]quinoline derivatives, their preparation processes, and pharmaceutical compositions comprising the same” (Kaohsiung Medical University, priority 2011, dated 2015)
In brackets after ≈: the same amount, converted by molar mass. Like-named read-outs stand apart in the source and are kept apart here. Marks after values point to notes of the source that are not given here.

Tests used:
[1] = tested on: MCF-7 (breast cancer cell); experiment: MTT antiproliferative assay (cell growth %, GI50), MCF-7; type: cell-based; set-up: Cell growth (%) MCF-7: unit of the concentration uncertain; settings: for Cell growth (%) MCF-7 / activity at 4000 µg/mL / activity at 20000 µg/mL: 48 hours, MTT; for SI MCF-7: GI50 MRC-5 / GI50 MCF-7; for activity at 4000 µg/mL / activity at 20000 µg/mL / GI50: Homo sapiens; for activity at 4000 µg/mL: 4 mg/ml; for activity at 20000 µg/mL: 20 mg/ml
Description: (§1) Antiproliferative activities of the compounds of this invention were evaluated substantially according to the method as described in Tseng, C. […] The cells were treated with the test compounds, i.e., the compounds of this invention (in dimethylsulfoxide (DMSO)), or DMSO for 48 hours.
(§2) Before and after the treatment with the test compounds or DMSO, 3-(4,5-dimethylthiazol-2-yl)-2,5-diphenyltetrazolium bromide (MTT, 2 mg/mL, 100 μL) was added to each of the cultures, followed by cultivation for 2 hours. The resultant formazan was dissolved by the addition of DMSO. Absorbance at 570 nm (OD570) was measured using a microtiter plate reader (Dynex MRX-II).
(§3) Determination of GI50 was conducted thrice for each test compound. GI50 is expressed as mean±SD.

[2] = tested on: NCI-H460 (non-small cell lung carcinoma cell); experiment: MTT antiproliferative assay (cell growth %, GI50), NCI-H460; type: cell-based; set-up: Cell growth (%) NCI-H460: unit of the concentration uncertain; settings: for Cell growth (%) NCI-H460 / activity at 4000 µg/mL / activity at 20000 µg/mL: 48 hours, MTT; for SI NCI-H460: GI50 MRC-5 / GI50 NCI-H460; for activity at 4000 µg/mL / activity at 20000 µg/mL / GI50: Homo sapiens; for activity at 4000 µg/mL: 4 mg/ml; for activity at 20000 µg/mL: 20 mg/ml
Description: as §1, §2, §3

[3] = tested on: SF-268 (central nervous system carcinoma cell); experiment: MTT antiproliferative assay (cell growth %, GI50), SF-268; type: cell-based; set-up: Cell growth (%) SF-268: unit of the concentration uncertain; settings: for Cell growth (%) SF-268: 48 hours, MTT; for SI SF-268: GI50 MRC-5 / GI50 SF-268; for GI50: Homo sapiens
Description: as §1, §2, §3

[4] = tested on: MRC-5 (human lung fibroblast cell); experiment: GI50 determination on normal cell line MRC-5; type: cell-based
Description: as §1, §2, §3

[5] = Determination of solubility in water; type: physicochemical; settings: for Solubility in water: 25±0.1° C., stirred overnight, UV-VIS
Description: Determination of solubility in water was conducted substantially according to the method as described in Vougogiannopoulou, K. et al. (2008), J. Med. Chem., 51:6421-6431. An excess amount of the respective test compound was added into water, followed by sonication for 5 minutes. The resultant mixture was stirred at ambient temperature (25±0.1° C.) overnight. Centrifugation at 4000 rpm and 25° C. was conducted for 5 minutes. Absorbance of the sample of the respective test compound was measured at 315-420 nm using a UV-VIS spectrophotometer (JASCO UV-Visible V570). For each test compound, a standard curve was generated by plotting concentrations of standard solutions and the corresponding absorbances. The absorbance of the sample of each test compound was then converted to solubility in water (μg/mL) using the corresponding standard curve.

[6] = Single-dose pharmacokinetic analysis in CD-1 mice; type: in vivo
Description: CD-1 mice were divided into two groups. The first group of mice (n=9) were used to assess the singe-dose pharmacokinetics of the test compounds after intravenous administration, and the second group of mice (n=9) were utilized to assess the singe-dose pharmacokinetics of the test compounds after oral administration. All of the mice were fasted from 4 hours before the administration of the test compounds until 4 hours after the administration of the test compounds.
The assessment for singe-dose pharmacokinetics of the test compounds after intravenous administration was performed as follows. The first group of mice were further randomly divided into three subgroups including compound 13a group (n=3), compound 14a group (n=3), and compound 1 group (n=3). Compounds 13a, 14a, 1 (in polyethylene glycol 400/ethanol/water (30/5/65, v/v/v)) were respectively administered to the mice in compound 13a group, compound 14a group, and compound 1 group at a dose of 2 mg/kg via tail vein injection. Blood samples (0.25 mL) were collected from the mice by virtue of cardiac puncture right before the intravenous administration, and at 2 min, 5 min, 15 min, 30 min, 1 hr, 1.5 hr, 2 hr, 4 hr, 6 hr, 9 hr, 24 hr, and 27 hr after the intravenous administration.
The assessment for singe-dose pharmacokinetics of the test compounds after oral administration was conducted as follows. The second group of mice were further randomly divided into three subgroups including compound 13a group (n=3), compound 14a group (n=3), and compound 1 group (n=3). Compounds 13a, 14a, 1 (in 0.5% methylcellulose) were respectively administered to the mice in compound 13a group, compound 14a group, and compound 1 group at a dose of 20 mg/kg via tube feeding. Blood samples (0.25 mL) were collected from the mice by virtue of cardiac puncture right before the oral administration, and at 15 min, 30 min, 1 hr, 1.5 hr, 2 hr, 4 hr, 6 hr, 9 hr, 24 hr, and 27 hr after the oral administration.
Each of the blood samples was placed in a 0.5 mL Microtainer® tube containing anticoagulant EDTA-K2, followed by mixing evenly. Centrifugation at 7000 g and 4° C. was conducted for 5 minutes. Plasma was collected and was mixed uniformly with a proper amount of acetonitrile, followed by centrifugation. The resultant supernatant was acquired, and was injected into a reversed-phase Biosil ODS column so as to determine the concentration of the respective test compound in plasma (i.e., the plasma concentration of the respective test compound) using a LC-MS/MS system (Waters 2795 LC and Micromass Quattro Ultima). The singe-dose pharmacokinetic parameters of the respective test compound were calculated from the obtained concentration of the respective test compound in plasma (i.e., the obtained plasma concentration of the respective compound) at different time points using WinNonlin Standard Program (version 3.1, Pharsight Corp.)

[7] = MCF7, mean±SD, read-out: GI50 MCF-7
[8] = NCI-H460, mean±SD, read-out: GI50 NCI-H460
[9] = SF-268, mean±SD, read-out: GI50 SF-268
[10] = MRC5, normal cell line, mean±SD, read-out: GI50 MRC-5
[11] = intravenous administration, 2 mg/kg

Row | Compound | GI50 [1, 7] | GI50 [2, 8] | GI50 [3, 9] | Solubility in water [5] | SI MCF-7 [1] | activity at 4000 µg/mL ([1]; MCF7) | activity at 20000 µg/mL ([1]; MCF7) | SI NCI-H460 [2] | activity at 4000 µg/mL ([2]; NCI-H460) | activity at 20000 µg/mL ([2]; NCI-H460) | SI SF-268 [3] | GI50 [4, 10] | also measured
1 | COc1ccc2c(Nc3ccc(/C(C)=N/OCCCN(C)C)cc3)c3c(Cl)coc3nc2c1 [Compound 16d, (E)-1-(4-(3-Chloro-7-methoxyfuro[2,3-b]quinolin-4-ylamino)phenyl)ethanone O-3-(dimethylamino) propyl oxime] |  |  |  |  |  |  |  |  |  |  |  |  | Cell growth (%) MCF-7 ([1]; 4 (unit uncertain)): 66%; Cell growth (%) MCF-7 ([1]; 20 (unit uncertain)): 1%; Cell growth (%) NCI-H460 ([2]; 4 (unit uncertain)): 66%; Cell growth (%) NCI-H460 ([2]; 20 (unit uncertain)): 4%; Cell growth (%) SF-268 ([3]; 4 (unit uncertain)): 103%; Cell growth (%) SF-268 ([3]; 20 (unit uncertain)): 1%
2 | COc1cccc2c1C(=O)c1c(O)c3c(c(O)c1C2=O)C[C@@](O)(C(C)=O)C[C@@H]3O[C@H]1C[C@H](N)[C@H](O)[C@H](C)O1 [daunorubicin, reference compound] |  |  |  |  | 0.17 |  |  | 2.32 |  |  | 1.47 |  | GI50 ([1]; MCF7, read-out: GI50 MCF-7): 5.03 ± 0.05 µM; GI50 ([2]; NCI-H460, read-out: GI50 NCI-H460): 0.38 ± 0.04 µM; GI50 ([3]; SF-268, read-out: GI50 SF-268): 0.6 ± 0.02 µM; GI50 ([4]; MRC5, read-out: GI50 MRC-5): 0.88 ± 0.11 µM
3 | CC[C@@]1(O)C(=O)OCc2c1cc1n(c2=O)Cc2cc3ccccc3nc2-1 [camptothecin, reference compound] | 11.1 ± 0.61 µM | 0.03 ± 0.003 µM | 0.19 ± 0.006 µM |  | 0.08 |  |  | 29.67 |  |  | 4.68 | 0.89 ± 0.9 µM | 
4 | C/C(=N\OCCN)c1ccc(Nc2c3ccccc3nc3occc23)cc1.Cl [Hydrochloride salt of 13a, hydrochloride salt of (E)-1-(4-(furo[2,3-b]quinolin-4-ylamino)phenyl)ethanone O-2-aminoethyl oxime] |  |  |  | 1049 µg/mL |  |  |  |  |  |  |  |  | Solubility in water relative to compound 13a ([5]; fold versus compound 13a): about 17 times
5 | COc1ccc2c(Nc3ccc(/C(C)=N/OCCN(C)C)cc3)c3c(Cl)coc3nc2c1 [Compound 16b, (E)-1-(4-(3-Chloro-7-methoxyfuro[2,3-b]quinolin-4-ylamino)phenyl)ethanone O-2-(dimethylamino) ethyl oxime] |  |  |  |  |  |  |  |  |  |  |  |  | Cell growth (%) MCF-7 ([1]; 4 (unit uncertain)): 51%; Cell growth (%) MCF-7 ([1]; 20 (unit uncertain)): −2%; Cell growth (%) NCI-H460 ([2]; 4 (unit uncertain)): 74%; Cell growth (%) NCI-H460 ([2]; 20 (unit uncertain)): −1%; Cell growth (%) SF-268 ([3]; 4 (unit uncertain)): 102%; Cell growth (%) SF-268 ([3]; 20 (unit uncertain)): −1%

Now from value to compound, other results behind:

Row | GI50 [1, 7] | GI50 [2, 8] | GI50 [3, 9] | Solubility in water [5] | Compound | SI MCF-7 [1] | activity at 4000 µg/mL ([1]; MCF7) | activity at 20000 µg/mL ([1]; MCF7) | SI NCI-H460 [2] | activity at 4000 µg/mL ([2]; NCI-H460) | activity at 20000 µg/mL ([2]; NCI-H460) | SI SF-268 [3] | GI50 [4, 10] | also measured
6 | 36.23 ± 0.05 µM | 3.96 ± 0.14 µM | 8.15 ± 0.44 µM | 16 µg/mL (≈ 41 µM) | COc1ccc2c(Nc3ccc(/C(C)=N/OCCN)cc3)c3ccoc3nc2c1 [Compound 15a, (E)-1-(4-(7-Methoxyfuro[2,3-b]quinolin-4-ylamino)phenyl)ethanone O-2-aminoethyl oxime] | 1.24 | 71% | 8% | 11.39 | 14% | 11% | 5.53 | 45.11 ± 0.31 µM | 
7 | 9.46 ± 0.23 µM | 16.2 ± 0.36 µM | 32.5 ± 1.25 µM | 36 µg/mL (≈ 88 µM) | C/C(=N\OCCCN)c1ccc(Nc2c3ccccc3nc3occ(Cl)c23)cc1 [Compound 14c, (E)-1-(4-(3-Chlorofuro[2,3-b]quinolin-4-ylamino)phenyl)ethanone O-3-aminopropyl oxime] | 4.98 | 46% | 0% | 2.90 | 28% | 0% | 1.46 | 47.1 ± 2.27 µM | 
8 | 11.52 ± 0.02 µM | 7.08 ± 0.67 µM | 7.53 ± 0.41 µM | 58 µg/mL (≈ 155 µM) | C/C(=N\OCCCN)c1ccc(Nc2c3ccccc3nc3occc23)cc1 [Compound 13c, (E)-1-(4-(furo[2,3-b]quinolin-4-ylamino)phenyl)ethanone O-3-aminopropyl oxime] | 3.73 | 52% | -3% | 6.07 | 22% | -2% | 5.71 | 43 ± 0.86 µM | 
9 | 31.01 ± 0.03 µM | 0.71 ± 0.02 µM | 9.14 ± 0.72 µM | 25 µg/mL (≈ 63.3 µM) | C/C(=N\OCCN)c1ccc(Nc2c3ccccc3nc3occ(Cl)c23)cc1 [Compound 14a, (E)-1-(4-(3-Chlorofuro[2,3-b]quinolin-4-ylamino)phenyl)ethanone O-2-aminoethyl oxime] | 1.52 | 59% | -1% | 66.25 | 32% | -1% | 5.15 | 47 ± 1.21 µM | AUC(0-inf) [6, 11]: 409.8 ng·h/mL; CL [6, 11]: 81.3 mL/min/kg; MRT [6, 11]: 6.1 h; Vss [6, 11]: 30.0 L/kg; Vz [6, 11]: 103.8 L/kg; Cmax ([6]; intravenous administration, 2 mg/kg, extrapolated plasma concentration at 0 hr): 3601 ng/mL; t1/2 ([6]; intravenous administration, 2 mg/kg, from 0.5-1.5 hr (compd. 1) or 9-27 hr (13a, 14a)): 14.7^d hr; Bioavailability ([6]; oral 20 mg/kg versus intravenous 2 mg/kg): 5.9%; AUC(0-inf) ([6]; oral administration, 20 mg/kg): 242.6 ng·h/mL; Cmax ([6]; oral administration, 20 mg/kg): 114.3 ng/mL; MRT ([6]; oral administration, 20 mg/kg): 2.8 h; Time after which compound was unable to be detected in plasma ([6]; oral administration, 20 mg/kg): 9 h; Tmax ([6]; oral administration, 20 mg/kg): 1.0 h; t1/2 ([6]; oral administration, 20 mg/kg, from 2-6 hr (compd. 1), 2-24 hr (13a), 2-9 hr (14a)): 1.7^f hr
10 | 36.93 ± 0.31 µM | 3.86 ± 0.13 µM | 7.48 ± 0.366 µM | 17 µg/mL (≈ 40 µM) | COc1ccc2c(Nc3ccc(/C(C)=N/OCCN)cc3)c3c(Cl)coc3nc2c1 [Compound 16a, (E)-1-(4-(3-Chloro-7-methoxyfuro[2,3-b]quinolin-4-ylamino)phenyl)ethanone O-2-aminoethyl oxime] | 1.28 | 66% | -1% | 12.30 | 13% | 3% | 6.34 | 47.46 ± 0.38 µM | 
